Positions of bridges follow the written chain, without caps; N, C: chain ends. Residues, ends and D or L forms follow the SMILES beside them. No end group written: not given here.
How the values were obtained:
[1] = test system: Sprague-Dawley (SD) rats; assay: Antidiuretic experiment in SD rats (single tail intravenous injection, metabolic cage); type: in vivo, rat
[2] = test system: Sprague-Dawley (SD) rats; assay: Death and signs of toxicity after intravenous injection in SD rats; type: in vivo, rat; details: for death or signs of toxicity: injection, 'the same doses' (AVP: data not shown)
[3] = administered intravenously; no reference printed ('generally known'); cited from earlier work
[4] = test system: rat V1bR; parameters: method as in PMID 9264324; details: ref [8]; cited from earlier work
[5] = test system: HEK293T human kidney cells; assay: CCK-8 cell viability assay and morphology, HEK293T; type: cell-based; details: for viable HEK293T cells: 0.1–50 μM
Protocol: Human kidney HEK293T cells were obtained from the American Type Culture Collection (ATCC, Manassas, VA, USA). The 293T cells were grown in DMEM supplemented with 10% fetal bovine serum (HyClone, Logan, UT, USA) and penicillin–streptomycin. Cells were incubated at 37 °C in a humidified atmosphere with 95% air/5% CO2. HEK293T cells (5 × 10^3) were incubated in 96-well plates to measure cell viability using a Cell Counting Kit-8 (CCK-8; Dojindo Laboratories, Kumamoto, Japan). After overnight incubation, the medium was changed to fresh medium containing CPT at doses of 50~0.1 μM in three wells each. Then, the cells were incubated for 24, 48, or 72 h and photographed under a phase-contrast microscope. We added 100 μL of fresh medium and 10 μL of CCK-8 solution to each well. After incubation for 3 h at 37 °C, the optical density (OD) at 450 nm was measured using a Spectramax i3x instrument (Molecular Devices, San Jose, CA, USA). The cell viability was calculated as follows: cell viability (%) = (OD (experiment) − OD (blank))/(OD (control) − OD (blank)) × 100%

[6] = test system: rat V2R; parameters: method as in PMID 9264324; details: ref [8]; cited from earlier work
[7] = biological target: T1, human OXTR (Homo sapiens, UniProt P30559); assay: OXTR functional assay, antagonist effect (30 nM OXT-induced intracellular Ca^2+, fluorimetry, ECV304 cells); type: cell-based
T1 construct: host or cells: ECV304
T1 sequence (P30559 1-389): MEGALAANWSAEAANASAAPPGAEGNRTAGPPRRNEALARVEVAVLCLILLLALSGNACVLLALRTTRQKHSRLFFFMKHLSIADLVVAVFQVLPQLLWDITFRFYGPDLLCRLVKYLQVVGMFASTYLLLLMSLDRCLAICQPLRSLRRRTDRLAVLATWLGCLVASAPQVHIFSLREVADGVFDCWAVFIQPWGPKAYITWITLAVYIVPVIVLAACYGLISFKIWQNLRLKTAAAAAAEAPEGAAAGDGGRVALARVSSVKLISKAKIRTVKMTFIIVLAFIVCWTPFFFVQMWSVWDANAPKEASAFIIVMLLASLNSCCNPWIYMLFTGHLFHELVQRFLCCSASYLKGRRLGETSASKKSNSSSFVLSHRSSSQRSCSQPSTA
Protocol: (§1) Detailed information about the cells tested and other experimental conditions are described in Table 2. Briefly, cells were transfected with a recombinant expression vector capable of expressing each type of human OXT/AVP receptor. To evaluate the agonist effects on OXTR, V1aR, and V1bR, the intracellular Ca^2+ increase after treatment with OTP or CPT was measured by fluorimetry. […] For V2R receptors, cells were treated with peptides with or without the stimulant for 30 min. After that, cyclic AMP (cAMP) concentrations were measured by homogeneous time-resolved fluorescence (HTRF). The results were represented as the percent submaximal response achieved by the stimulant. All experiments were performed in triplicate. Data are presented as the mean ± standard error of the mean. The 50% effective concentration (EC50) and 50% inhibitory concentration (IC50) values were determined using a 4-parameter logistic fitting of a dose–response curve using SigmaPlot 10.0 (Systat Software, Palo Alto, CA, USA).

[8] = biological target: T2, human V2R (Homo sapiens, UniProt P30518); assay: V2R functional assay, agonist effect (cAMP accumulation, HTRF, CHO cells); type: cell-based
T2 construct: host or cells: CHO
Protocol: as §1

[9] = biological target: T3, human V1aR (Homo sapiens, UniProt P37288); assay: V1aR functional assay, antagonist effect (10 nM AVP-induced intracellular Ca^2+, fluorimetry, CHO cells); type: cell-based
T3 construct: host or cells: CHO
T3 sequence (P37288 whole entry): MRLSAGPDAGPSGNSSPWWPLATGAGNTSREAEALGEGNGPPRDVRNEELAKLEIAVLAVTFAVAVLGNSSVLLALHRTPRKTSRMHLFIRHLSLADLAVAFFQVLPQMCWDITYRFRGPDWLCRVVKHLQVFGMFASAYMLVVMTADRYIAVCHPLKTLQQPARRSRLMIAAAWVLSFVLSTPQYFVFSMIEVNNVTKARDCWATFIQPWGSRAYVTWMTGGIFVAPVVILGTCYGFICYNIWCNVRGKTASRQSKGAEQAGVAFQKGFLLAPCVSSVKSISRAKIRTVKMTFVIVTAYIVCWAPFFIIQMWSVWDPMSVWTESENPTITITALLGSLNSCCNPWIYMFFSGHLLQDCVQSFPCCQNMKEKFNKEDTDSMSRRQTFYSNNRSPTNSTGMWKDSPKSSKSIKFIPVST
Protocol: as §1

[10] = biological target: T3, human V1aR; assay: V1aR functional assay, agonist effect (intracellular Ca^2+ increase, fluorimetry, CHO cells); type: cell-based; details: up to 50 μM, RT, % of control response (1 µM AVP), triplicate
Protocol: as §1

[11] = biological target: T1, human OXTR; assay: OXTR functional assay, agonist effect (intracellular Ca^2+ increase, fluorimetry, transfected ECV304 cells); type: cell-based; details: up to 50 μM, RT, % of control response (1 µM OXT), triplicate
Protocol: as §1

[12] = biological target: T4, human V1bR (Homo sapiens, UniProt P47901); assay: V1bR functional assay, agonist effect (intracellular Ca^2+ increase, fluorimetry, RBL cells); type: cell-based
T4 construct: host or cells: RBL
T4 sequence (P47901 1-424): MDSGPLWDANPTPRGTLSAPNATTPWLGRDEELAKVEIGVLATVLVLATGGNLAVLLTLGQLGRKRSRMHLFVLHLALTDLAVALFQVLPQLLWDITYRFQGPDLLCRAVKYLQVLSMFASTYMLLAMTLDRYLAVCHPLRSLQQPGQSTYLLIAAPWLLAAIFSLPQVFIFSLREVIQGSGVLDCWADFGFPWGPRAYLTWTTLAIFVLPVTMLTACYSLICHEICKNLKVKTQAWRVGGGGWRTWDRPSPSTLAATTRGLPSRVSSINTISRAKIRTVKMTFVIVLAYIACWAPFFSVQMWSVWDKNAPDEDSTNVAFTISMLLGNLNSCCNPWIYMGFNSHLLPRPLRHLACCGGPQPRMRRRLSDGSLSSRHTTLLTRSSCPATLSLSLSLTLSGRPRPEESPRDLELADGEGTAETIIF
Protocol: as §1

[13] = test system: V1aR; details: no reference given; cited from earlier work
Text: (§2) Currently, desmopressin is the antidiuretic drug of choice for the treatment of excessive and/or uncontrolled urination. […] Although desmopressin is generally considered safe and efficacious in the treatment o ...

[14] = treatment of nocturia, enuresis, and diabetes insipidus; ref [26]; cited from earlier work
Text: as §2

[15] = test system: V1aR; details: ref [17]; cited from earlier work
[16] = biological target: human AVP type 2 receptor (human) (UniProt P30518)
[17] = biological target: human oxytocin receptor (human) (UniProt P30559)
[18] = biological target: human vasopressin receptor V1aR (human) (UniProt P37288)
Chain of human vasopressin receptor V1aR (human) (P37288 whole entry): as the sequence (P37288 whole entry) above

[19] = biological target: T5, human AVP type 1b receptor (human) (UniProt P47901)
T5 sequence: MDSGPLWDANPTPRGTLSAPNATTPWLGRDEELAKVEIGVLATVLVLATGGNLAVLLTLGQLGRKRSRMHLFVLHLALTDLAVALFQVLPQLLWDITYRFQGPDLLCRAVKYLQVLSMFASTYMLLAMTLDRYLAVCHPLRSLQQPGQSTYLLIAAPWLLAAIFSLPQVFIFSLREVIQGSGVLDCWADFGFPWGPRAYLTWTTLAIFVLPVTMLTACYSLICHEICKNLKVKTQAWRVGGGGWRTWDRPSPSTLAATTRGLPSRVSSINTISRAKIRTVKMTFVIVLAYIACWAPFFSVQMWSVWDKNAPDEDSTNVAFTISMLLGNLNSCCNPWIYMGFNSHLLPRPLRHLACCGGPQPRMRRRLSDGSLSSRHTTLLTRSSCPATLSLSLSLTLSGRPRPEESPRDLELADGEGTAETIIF

[20] = biological target: human AVP type 2 receptor (human) (UniProt P30518); remark: listed apart in the source
[21] = biological target: human oxytocin receptor (human) (UniProt P30559); remark: listed apart in the source
[22] = 24 h after treatment, CCK-8, triplicate
[23] = 48 h after treatment, CCK-8, triplicate
[24] = nanomolar level of CPT (Figure 2E, 36.55 nM), calculated by curve-fitting

NC(=O)CC[C@@H]1NC(=O)[C@H](Cc2ccccc2)NC(=O)[C@H](Cc2ccc(O)cc2)NC(=O)[C@@H](N)CSSC[C@@H](C(=O)N2CCC[C@H]2C(=O)N[C@@H](CCCN=C(N)N)C(=O)NCC(N)=O)NC(=O)[C@H](CC(N)=O)NC1=O [AVP, arginine vasopressin]
antidiuretic effect (in words) ([1]; SD rats, 0.001 mg/mL/kg micro intravenous tail administration): shows an antidiuretic effect | lethality ([2]; 0.001 mg/mL/kg micro intravenous tail administration): occasionally lethal | death or signs of toxicity [2]: occasionally caused death | half-life [3]: several minutes | EC50 [4]: 1.31 nM | viable HEK293T cells [5, 22]: Over 98% | viable HEK293T cells [5, 23]: Over 98% | viability compared to PBS control (in words) ([5]; 72 h, 0.1–10 μM, CCK-8, triplicate): slightly increase the viability | EC50 [6]: 43.5 nM

CC[C@H](C)[C@H](NC(=O)[C@@H]1CCCN1C(=O)[C@@H]1CSSC[C@H](N)C(=O)N[C@@H](Cc2ccc(O)cc2)C(=O)N[C@@H](Cc2ccccc2)C(=O)N[C@@H](CCCNC(=N)N)C(=O)N[C@@H](CC(N)=O)C(=O)N1)C(=O)NCC(N)=O [CPT, cephalotocin] (H-CYFRNCPIG-NH2; disulfide 1-6)
IC50 ([7]; ECV304, stimulant 30 nM OXT, RT, fluorimetry, 4-parameter logistic fitting, triplicate): > 50000 nM | expected effect on OXTR, nanomolar level [7, 24]: < 20% | EC50 ([8]; CHO, cAMP, HTRF, 30 min RT, 4-parameter logistic fitting, triplicate): 12.1 nM | expected V2R activation, nanomolar level [8, 24]: ~ 80% | IC50 [9]: 1230 nM | inhibition at 1.65 µM ([9]; CHO, micromolar level (Figure 2F, 1.65 μM), calculated by curve-fitting, read-out: expected V1aR inhibition, micromolar level): ≥ 50% | expected effect on V1aR, nanomolar level [9, 24]: < 20% | death or signs of toxicity [2]: did not cause any death or signs of toxicity | lethality ([2]; single intravenous injection (1 mg/mL/kg)): did not kill the experimental animals | V1aR-mediated intracellular Ca^2+ increase (agonist effect) [10]: not activated | OXTR-mediated intracellular Ca^2+ increase (agonist effect) [11]: not activated | EC50 ([12]; RBL, intracellular Ca^2+, fluorimetry, RT, 4-parameter logistic fitting, triplicate): 10 nM | expected V1bR activation, nanomolar level [12, 24]: ~ 80% | cell morphology [5]: unchanged | viable HEK293T cells [5, 22]: Over 98% | viable HEK293T cells [5, 23]: Over 98%

Mpr-YFQNCP(D-Arg)G-NH2 (disulfide bond) (disulfide) [Desmopressin, 1-deamino-8-D-arginine vasopressin, positive control]
osmolarity (in words) ([1]; male rats under 200 g, single microvenous injection, n=6 for each group): no change | death or signs of toxicity [2]: did not cause any death or signs of toxicity | V1aR-mediated pressor activity [13]: low | serious adverse effect [14]: hyponatremia | half-life [3]: several hours

inotocin
V1aR activity (in words) [15]: selective antagonists of V1aR

B1: Octopressin (peptide)
peptide: CYWTSCPIG-NH2
modifications: disulfide 1-6; N-terminus assumed
SMILES: CC[C@H](C)[C@H](NC(=O)[C@@H]1CCCN1C(=O)[C@@H]1CSSC[C@H](N)C(=O)N[C@@H](Cc2ccc(O)cc2)C(=O)N[C@@H](Cc2c[nH]c3ccccc23)C(=O)N[C@@H]([C@@H](C)O)C(=O)N[C@@H](CO)C(=O)N1)C(=O)NCC(N)=O
V2R-mediated cAMP accumulation (agonist effect) in CHO cells expressing human V2R, percent of the control response at 50 μM OTP [16]: < 30% | antagonist effect on intracellular Ca^2+ release induced by 30 nM OXT in ECV304 cells expressing human OXTR (pair blocked: OXT and OXTR), inhibition rate at 50 μM OTP [17]: 30%

B2: Cephalotocin (peptide)
peptide: CYFRNCPIG-NH2
modifications: disulfide 1-6; N-terminus assumed
SMILES: CC[C@H](C)[C@H](NC(=O)[C@@H]1CCCN1C(=O)[C@@H]1CSSC[C@H](N)C(=O)N[C@@H](Cc2ccc(O)cc2)C(=O)N[C@@H](Cc2ccccc2)C(=O)N[C@@H](CCCNC(=N)N)C(=O)N[C@@H](CC(N)=O)C(=O)N1)C(=O)NCC(N)=O
IC50 of the antagonist effect on intracellular Ca^2+ release induced by 10 nM AVP in CHO cells expressing human V1aR (pair blocked: AVP and V1aR) [18]: 1230 nM | EC50 of V1bR-mediated intracellular Ca^2+ release (agonist effect) in RBL cells expressing human V1bR, fluorimetry [19]: 10 nM | EC50 of V2R-mediated cAMP accumulation (agonist effect) in CHO cells expressing human V2R, HTRF [20]: 12.1 nM | IC50 of the antagonist effect on intracellular Ca^2+ release induced by 30 nM OXT in ECV304 cells expressing human OXTR (pair blocked: OXT and OXTR) [21]: > 50000 nM

Reference: PMC9144402, “An Octopus-Derived Peptide with Antidiuretic Activity in Rats” (Marine Drugs, 2022)
